Results on 7 compounds are retold here after PubChem BioAssay AID2060617 (Molecular Pharmacology Branch, DTP, NCI, 2025).

Several values for one entry are separate records, joined by “and”; a condition that tells them apart may be missing. Equal values may be shown once.

This assay deals with 485368-065-R4-J2-PDC spheroids with HUVEC/MSC, viability. Description: Anticancer human tumor 485368-065-R4-J2-PDC patient-derived pancreatic carcinoma cell line growth inhibition [CLK]. To be noted: for viability, T/C: stronger effect = lower value. The gist of the method:
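Multi-cell-type spheroids combined patient-derived tumor cells with HUVEC endothelial cells and human mesenchymal stem cells. Paired agents were dosed in half-log steps down from about clinical Cmax, or from 10 microM where Cmax was unknown.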

[1] abbreviates: curve of first compound, second compound 0.0316 µM.
Where [2] appears, read: curve of first compound, second compound 0.1 µM.
Setting [3] is: curve of first compound, second compound 0.316 µM.
The mark [4] stands for this setting: curve of first compound, second compound 1 µM.
[5] abbreviates: curve of first compound, second compound 3.16 µM.
[6] abbreviates: curve of first compound, second compound 10 µM.
Where [7] appears, read: second compound 0.0316 µM, first compound 0.0316 µM.
Where [8] appears, read: second compound 0.0316 µM, first compound 0.1 µM.
Where [9] appears, read: second compound 0.0316 µM, first compound 0.316 µM.
[10] abbreviates: second compound 0.0316 µM, first compound 1 µM.
The mark [11] stands for this setting: second compound 0.0316 µM, first compound 3.16 µM.
Setting [12] is: second compound 0.0316 µM, first compound 10 µM.
[13] abbreviates: second compound 0.1 µM, first compound 0.0316 µM.
[14] abbreviates: second compound 0.1 µM, first compound 0.1 µM.
Setting [15] is: second compound 0.1 µM, first compound 0.316 µM.
Where [16] appears, read: second compound 0.1 µM, first compound 1 µM.
The mark [17] stands for this setting: second compound 0.1 µM, first compound 3.16 µM.
Where [18] appears, read: second compound 0.1 µM, first compound 10 µM.
Setting [19] is: second compound 0.316 µM, first compound 0.0316 µM.
Where [20] appears, read: second compound 0.316 µM, first compound 0.1 µM.
Setting [21] is: second compound 0.316 µM, first compound 0.316 µM.
Where [22] appears, read: second compound 0.316 µM, first compound 1 µM.
The mark [23] stands for this setting: second compound 0.316 µM, first compound 3.16 µM.
The mark [24] stands for this setting: second compound 0.316 µM, first compound 10 µM.
The mark [25] stands for this setting: second compound 1 µM, first compound 0.0316 µM.
The mark [26] stands for this setting: second compound 1 µM, first compound 0.1 µM.
The mark [27] stands for this setting: second compound 1 µM, first compound 0.316 µM.
Setting [28] is: second compound 1 µM, first compound 1 µM.
Where [29] appears, read: second compound 1 µM, first compound 3.16 µM.
The mark [30] stands for this setting: second compound 1 µM, first compound 10 µM.
[31] abbreviates: second compound 3.16 µM, first compound 0.0316 µM.
The mark [32] stands for this setting: second compound 3.16 µM, first compound 0.1 µM.
[33] abbreviates: second compound 3.16 µM, first compound 0.316 µM.
Where [34] appears, read: second compound 3.16 µM, first compound 1 µM.
The mark [35] stands for this setting: second compound 3.16 µM, first compound 3.16 µM.
The mark [36] stands for this setting: second compound 3.16 µM, first compound 10 µM.
Where [37] appears, read: second compound 10 µM, first compound 0.0316 µM.
The mark [38] stands for this setting: second compound 10 µM, first compound 0.1 µM.
The mark [39] stands for this setting: second compound 10 µM, first compound 0.316 µM.
The mark [40] stands for this setting: second compound 10 µM, first compound 1 µM.
[41] abbreviates: second compound 10 µM, first compound 3.16 µM.
Where [42] appears, read: second compound 10 µM, first compound 10 µM.
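Also: spheroids exposed to compounds for seven days.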
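For viability, T/C in this document: 100% = DMSO vehicle control wells.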

In the case of `C=CC(=O)N1CCN(c2nc(=O)n(-c3c(C)ccnc3C(C)C)c3nc(-c4c(O)cccc4F)c(F)cc23)C(C)C1` (centres undefined) + CNC(=O)c1ccc(Nc2nc(OC3CCCC3)c3c(-c4ccc5nc(C)oc5c4)c[nH]c3n2)c(OC)c1, the half-inhibitory concentration (IC50) (as a rule, the midpoint of a concentration-inhibition curve) runs as follows: under setting [1], above 10 µM; under setting [2], above 10 µM; under setting [3], above 10 µM; under setting [4], above 10 µM; under setting [5], above 10 µM; under setting [6], above 10 µM. Further, the viability, T/C (commonly the result in the treated group divided by that in the control group, in per cent) is 94% under setting [7]; 110% under setting [8]; 89.5% under setting [9]; 103% under setting [10]; 93.3% under setting [11]; 98.9% under setting [12]. Also, the viability, T/C by setting is: under setting [13], 105%; under setting [14], 98.5%; under setting [15], 99.8%; under setting [16], 109%; under setting [17], 95.9%; under setting [18], 88.8%. Besides, the viability, T/C reads like this: under setting [19], 82%; under setting [20], 92.5%; under setting [21], 92.2%; under setting [22], 95%; under setting [23], 80.8%; under setting [24], 72.8%. For the same compound, the viability, T/C was 85% under setting [25]; 87.9% under setting [26]; 79.4% under setting [27]; 82.8% under setting [28]; 78.1% under setting [29]; 75.7% under setting [30]. The viability, T/C was 76.7% under setting [31]; 69.7% under setting [32]; 72.2% under setting [33]; 73.8% under setting [34]; 77.5% under setting [35]; 69.8% under setting [36]. Further, the viability, T/C reads like this: under setting [37], 77.8%; under setting [38], 76.4%; under setting [39], 75%; under setting [40], 74.4%; under setting [41], 74.2%; under setting [42], 67.4%.
For the compound `Nc1ccccc1NC(=O)c1ccc(CNC(=O)OCc2cccnc2)cc1`, the viability, T/C runs as follows: (compound 0.0316 µM) 83.9% and 90.3%; (compound 0.1 µM) 105% and 96.6%; (compound 0.316 µM) 94.3% and 91.9%; (compound 1 µM) 92.6% and 90.3%; (compound 3.16 µM) 88.2% and 84.8%; (compound 10 µM) 31.5% and 37%. In addition, the half-inhibitory concentration (IC50) (curve of compound) was 6.87 µM and 7.34 µM.
Regarding `CCc1c2c(nc3ccc(O)cc13)-c1cc3c(c(=O)n1C2)COC(=O)[C@]3(O)CC`, the viability, T/C (compound 0.00316 µM) was 46.5% and 55.5%; the viability, T/C (compound 0.01 µM) is 22.5% and 24.9%; the viability, T/C (compound 0.0316 µM) was 10.9% and 13.2%; the viability, T/C (compound 0.1 µM) is 7.63% and 7.75%; the viability, T/C (compound 0.316 µM) was 7.05% and 6.79%; the viability, T/C (compound 1 µM) is 14.8% and 15.6%. The half-maximal inhibitory concentration (IC50) (curve of compound) was < 0.00316 µM and 0.00383 µM.
On to `O=C(c1cc(Cc2n[nH]c(=O)c3ccccc23)ccc1F)N1CCN(C(=O)C2CC2)CC1` + CN1CCN(c2cc(C(=O)Nc3cc4cc(-c5cnn(C)c5)ccc4cn3)ccn2)CC1, for which the IC50 is, setting by setting: under setting [1], above 10 µM; under setting [2], above 10 µM; under setting [3], 8.88 µM; under setting [4], below 0.0316 µM; under setting [5], below 0.0316 µM; under setting [6], below 0.0316 µM. Besides, the viability, T/C was 92.6% under setting [7]; 111% under setting [8]; 106% under setting [9]; 110% under setting [10]; 105% under setting [11]; 82.6% under setting [12]. Besides, the viability, T/C reads like this: under setting [13], 107%; under setting [14], 105%; under setting [15], 105%; under setting [16], 103%; under setting [17], 105%; under setting [18], 76%. Besides, the viability, T/C by setting is: under setting [19], 79%; under setting [20], 79.9%; under setting [21], 79.7%; under setting [22], 81.1%; under setting [23], 70.5%; under setting [24], 47.5%. In addition, the viability, T/C runs as follows: under setting [25], 1.08%; under setting [26], 1.02%; under setting [27], 1.67%; under setting [28], 2.06%; under setting [29], 2.06%; under setting [30], 2.39%. For the same compound, the viability, T/C under setting [31] is 1.23%; the viability, T/C under setting [32] is 1.3%; the viability, T/C under setting [33] was 1.64%; the viability, T/C under setting [34] was 2.47%; the viability, T/C under setting [35] is 1.39%; the viability, T/C under setting [36] is 3.02%. Moreover, the viability, T/C reads like this: under setting [37], 1.53%; under setting [38], 1.87%; under setting [39], 2.81%; under setting [40], 2.7%; under setting [41], 2.29%; under setting [42], 1.73%.
As for `COc1c(OCCCN2CCOCC2)ccc2c3n(c(=NC(=O)c4cnc(N)nc4)nc12)CCN3` + CN1CCN(c2cc(C(=O)Nc3cc4cc(-c5cnn(C)c5)ccc4cn3)ccn2)CC1, the IC50 under setting [1] turned out to be 0.245 µM; the IC50 under setting [2] is 0.117 µM; the IC50 under setting [3] amounted to 0.022 µM; the IC50 under setting [4] was below 0.00316 µM; the concentration for half-maximal inhibition (IC50) under setting [5] was below 0.00316 µM; the IC50 under setting [6] was below 0.00316 µM. Moreover, the viability, T/C by setting is: (second compound 0.0316 µM, first compound 0.00316 µM) 102%; (second compound 0.0316 µM, first compound 0.01 µM) 113%; under setting [7], 85.8%; under setting [8], 71.3%; under setting [9], 42%; under setting [10], 37.8%. Further, the viability, T/C runs as follows: (second compound 0.1 µM, first compound 0.00316 µM) 93.7%; (second compound 0.1 µM, first compound 0.01 µM) 99.9%; under setting [13], 82.7%; under setting [14], 53.7%; under setting [15], 32.4%; under setting [16], 33.2%. In addition, the viability, T/C was 69.4% (second compound 0.316 µM, first compound 0.00316 µM); 61.1% (second compound 0.316 µM, first compound 0.01 µM); 45.1% under setting [19]; 22.4% under setting [20]; 16.4% under setting [21]; 22.5% under setting [22]. Besides, the viability, T/C was 2.4% (second compound 1 µM, first compound 0.00316 µM); 1.65% (second compound 1 µM, first compound 0.01 µM); 1.92% under setting [25]; 0.96% under setting [26]; 1.07% under setting [27]; 5.51% under setting [28]. The viability, T/C was 1.02% (second compound 3.16 µM, first compound 0.00316 µM); 2.04% (second compound 3.16 µM, first compound 0.01 µM); 1.56% under setting [31]; 1.95% under setting [32]; 2.07% under setting [33]; 1.38% under setting [34]. Besides, the viability, T/C reads like this: (second compound 10 µM, first compound 0.00316 µM) 1.34%; (second compound 10 µM, first compound 0.01 µM) 2.28%; under setting [37], 3.18%; under setting [38], 3.27%; under setting [39], 2.35%; under setting [40], 2%.
In the case of `CC(CO)NC(=O)c1cc(-c2ccc(Cl)cc2)nn(-c2cnn(C)c2)c1=O` (centres undefined), the viability, T/C (compound 0.0316 µM) was 86.9% and 92.3%; the viability, T/C (compound 0.1 µM) is 92.6% and 87.3%; the viability, T/C (compound 0.316 µM) is 97.4% and 89.7%; the viability, T/C (compound 1 µM) is 100% and 101%; the viability, T/C (compound 3.16 µM) was 107% and 110%; the viability, T/C (compound 10 µM) is 105% and 104%. Besides, the IC50 (curve of compound) is above 10 µM.
Consider `NC(=O)C(=Cn1cnc(-c2cc(C(F)(F)F)cc(C(F)(F)F)c2)n1)c1cncnc1`, for which the viability, T/C is 94.3% and 112% (compound 0.00949 µM); 120% and 123% (compound 0.03 µM); 176% and 183% (compound 0.0949 µM); 193% and 186% (compound 0.3 µM); 169% and 182% (compound 0.949 µM); 122% and 136% (compound 3 µM). Moreover, the IC50 (curve of compound) was above 3 µM.
